Activity calls are given as the source filed them. The calls are words filed in the database; no cut-off is given here.
Key:
[1] = molecular target: Coagulation factor IX/VIII (Homo sapiens, UniProt P00451+P00740); experiment: Inhibition of human citrated plasma iXase (factor 8a-factor 9a complex) preincubated for 2 mins followed by factor 10 addition and measured after 1 min by FXa chromogenic substrate SXa-11 based assay; format: protein-complex assay
[2] = Half life in Kunming mouse at 5.11 mg/kg, sc; format: ADME, organism-based; conditions: in vivo
[3] = molecular target: T1, Coagulation factor XII (Homo sapiens) (UniProt P00748); experiment: Inhibition of factor 12a (unknown origin) at IC50 using kallikrein chromogenic substrate preincubated for 1 min followed by chromogenic substrate addition and measured for 2 mins; conditions: time 3.0 min
T1 sequence (whole entry): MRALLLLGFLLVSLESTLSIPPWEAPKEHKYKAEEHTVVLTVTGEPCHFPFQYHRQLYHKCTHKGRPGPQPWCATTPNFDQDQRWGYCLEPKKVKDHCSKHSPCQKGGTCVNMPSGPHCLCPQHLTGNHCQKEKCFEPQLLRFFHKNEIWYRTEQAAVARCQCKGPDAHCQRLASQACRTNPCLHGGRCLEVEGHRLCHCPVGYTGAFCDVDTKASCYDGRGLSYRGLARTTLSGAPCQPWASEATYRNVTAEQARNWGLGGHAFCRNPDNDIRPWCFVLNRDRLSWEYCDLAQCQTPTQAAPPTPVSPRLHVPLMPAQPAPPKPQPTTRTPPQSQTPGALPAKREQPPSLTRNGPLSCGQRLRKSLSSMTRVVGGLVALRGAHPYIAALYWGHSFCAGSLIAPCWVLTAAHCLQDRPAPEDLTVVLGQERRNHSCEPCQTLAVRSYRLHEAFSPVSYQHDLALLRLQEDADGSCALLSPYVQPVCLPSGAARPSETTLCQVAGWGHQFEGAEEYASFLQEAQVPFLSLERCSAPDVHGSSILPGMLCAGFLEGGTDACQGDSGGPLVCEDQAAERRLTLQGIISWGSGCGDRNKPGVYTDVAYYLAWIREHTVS

[4] = MRT (0 to 8 hrs) in Kunming mouse at 5.11 mg/kg, sc; format: ADME, organism-based; conditions: in vivo
Coagulation factor IX = Coagulation factor IX (Homo sapiens, UniProt P00740); experiment: Inhibition of factor 9a (unknown origin) binding to immobilized biotinylated oHG-11 by biolayer interferometry
[5] = Tmax in Kunming mouse at 5.11 mg/kg, sc; format: ADME, organism-based; conditions: in vivo
Rattus norvegicus [6] = experiment: Antithrombotic activity in thromboplastin and stasis-induced Sprague-Dawley rat deep venous thrombosis model assessed as reduction in venous thrombosis administered subcutaneously 1 hr prior to thromboplastin addition for 20 secs followed by establishment of stasis for 20 mins; format: functional; conditions: time 80.33 min
Plasma = experiment: Induction of platelet aggregation in rat wash platelet at plasma peak concentration of 10 times anti-thrombosis ED50 measured after 10 mins by light transmission aggregometry
Rattus norvegicus [7] = experiment: Antithrombotic activity in thromboplastin and stasis-induced Sprague-Dawley rat deep venous thrombosis model assessed as reduction in venous thrombosis at 2.7 mg/kg, sc administered 1 hr prior to thromboplastin addition for 20 secs followed by establishment of stasis for 20 mins; format: functional; set-up: scale not given: the % may be the effect or the level left; conditions: time 80.33 min, 1.339 h
[8] = molecular target: T1, Coagulation factor XII (Homo sapiens); experiment: Inhibition of factor 12a (unknown origin) at IC50 using kallikrein chromogenic substrate preincubated for 1 min followed by chromogenic substrate addition and measured for 2 mins in presence of AT-III; conditions: time 3.0 min

Chain of Coagulation factor IX/VIII (P00451 20-759 limits assumed): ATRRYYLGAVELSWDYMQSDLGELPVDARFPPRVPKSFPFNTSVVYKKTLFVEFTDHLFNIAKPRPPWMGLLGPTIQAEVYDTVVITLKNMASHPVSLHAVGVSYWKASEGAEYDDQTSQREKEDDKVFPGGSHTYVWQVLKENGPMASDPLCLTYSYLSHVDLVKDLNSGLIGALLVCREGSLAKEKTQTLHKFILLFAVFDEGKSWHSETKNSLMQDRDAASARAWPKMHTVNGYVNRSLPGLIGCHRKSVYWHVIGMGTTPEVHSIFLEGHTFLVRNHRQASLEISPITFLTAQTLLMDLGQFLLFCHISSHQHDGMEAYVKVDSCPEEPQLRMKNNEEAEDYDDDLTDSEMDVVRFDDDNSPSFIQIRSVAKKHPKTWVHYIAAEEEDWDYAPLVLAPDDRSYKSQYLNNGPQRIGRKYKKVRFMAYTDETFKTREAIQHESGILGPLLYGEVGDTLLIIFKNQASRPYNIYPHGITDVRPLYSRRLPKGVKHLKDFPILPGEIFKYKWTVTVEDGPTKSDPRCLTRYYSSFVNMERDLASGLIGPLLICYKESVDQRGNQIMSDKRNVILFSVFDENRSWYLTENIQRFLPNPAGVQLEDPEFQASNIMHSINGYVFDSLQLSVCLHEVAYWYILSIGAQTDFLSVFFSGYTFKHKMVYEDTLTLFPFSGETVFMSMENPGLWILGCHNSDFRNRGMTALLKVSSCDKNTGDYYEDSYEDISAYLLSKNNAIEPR
Chain of Coagulation factor IX/VIII (P00451 1668-2351 limits assumed): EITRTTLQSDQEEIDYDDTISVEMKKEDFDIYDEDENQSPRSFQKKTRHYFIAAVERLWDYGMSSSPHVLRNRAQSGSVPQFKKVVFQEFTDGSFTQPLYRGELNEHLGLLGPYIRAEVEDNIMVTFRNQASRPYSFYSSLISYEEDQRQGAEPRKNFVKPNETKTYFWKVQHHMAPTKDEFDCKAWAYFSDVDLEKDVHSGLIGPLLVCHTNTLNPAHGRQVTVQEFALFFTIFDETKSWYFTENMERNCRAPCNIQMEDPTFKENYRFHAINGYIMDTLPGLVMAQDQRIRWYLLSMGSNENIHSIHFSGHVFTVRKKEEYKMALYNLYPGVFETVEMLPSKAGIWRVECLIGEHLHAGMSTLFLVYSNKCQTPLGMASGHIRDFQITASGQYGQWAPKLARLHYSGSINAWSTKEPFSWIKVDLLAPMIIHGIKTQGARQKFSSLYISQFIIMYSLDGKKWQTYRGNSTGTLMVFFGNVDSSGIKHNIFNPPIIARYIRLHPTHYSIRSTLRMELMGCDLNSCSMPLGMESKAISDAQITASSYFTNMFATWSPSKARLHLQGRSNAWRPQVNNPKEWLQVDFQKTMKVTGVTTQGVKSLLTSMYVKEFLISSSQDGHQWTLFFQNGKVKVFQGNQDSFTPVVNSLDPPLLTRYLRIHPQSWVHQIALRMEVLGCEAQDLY
Chain of Coagulation factor IX/VIII (P00740 47-191 limits assumed): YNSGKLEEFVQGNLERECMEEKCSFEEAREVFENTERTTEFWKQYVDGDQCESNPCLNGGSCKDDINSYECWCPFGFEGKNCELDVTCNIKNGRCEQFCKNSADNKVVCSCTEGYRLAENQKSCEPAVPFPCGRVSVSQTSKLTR
Chain of Coagulation factor IX/VIII (P00740 227-461 limits assumed): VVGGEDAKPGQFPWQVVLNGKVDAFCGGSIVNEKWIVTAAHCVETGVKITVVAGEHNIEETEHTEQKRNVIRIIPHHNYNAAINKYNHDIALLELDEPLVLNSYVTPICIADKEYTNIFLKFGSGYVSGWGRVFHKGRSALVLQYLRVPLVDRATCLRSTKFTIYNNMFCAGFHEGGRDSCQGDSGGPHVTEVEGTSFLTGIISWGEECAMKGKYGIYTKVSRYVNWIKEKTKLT
Chain of Coagulation factor IX (P00740 47-191 limits assumed): as the sequence (P00740 47-191 limits assumed) above
Chain of Coagulation factor IX (P00740 227-461 limits assumed): as the sequence (P00740 227-461 limits assumed) above

CC(=O)N[C@H]1[C@H](O[C@H]2[C@H](O[C@@H]3O[C@@H](C)[C@@H](OS(=O)(=O)[O-])[C@@H](O)[C@@H]3OS(=O)(=O)O)[C@@H](O)[C@H](O[C@H]3[C@@H](NC(C)=O)[C@H](O[C@H]4[C@H](O[C@@H]5O[C@@H](C)[C@@H](OS(=O)(=O)[O-])[C@@H](O)[C@@H]5OS(=O)(=O)O)[C@@H](O)[C@H](O[C@H]5[C@@H](NC(C)=O)[C@H](O[C@H]6[C@H](O[C@@H]7O[C@@H](C)[C@@H](OS(=O)(=O)[O-])[C@@H](O)[C@@H]7OS(=O)(=O)O)[C@@H](O)[C@H](O[C@H]7[C@@H](NC(C)=O)[C@H](O[C@H]8[C@H](O[C@@H]9O[C@@H](C)[C@@H](OS(=O)(=O)[O-])[C@@H](O)[C@@H]9OS(=O)(=O)O)[C@@H](O)[C@H](O[C@H]9[C@@H](NC(C)=O)[C@H](O[C@@H]([C@H](O[C@@H]%10O[C@@H](C)[C@@H](OS(=O)(=O)[O-])[C@@H](O)[C@@H]%10OS(=O)(=O)O)[C@@H](O)CO)[C@H](O)C(=O)[O-])O[C@H](COS(=O)(=O)[O-])[C@@H]9OS(=O)(=O)[O-])O[C@@H]8C(=O)[O-])O[C@H](COS(=O)(=O)[O-])[C@@H]7OS(=O)(=O)[O-])O[C@@H]6C(=O)[O-])O[C@H](COS(=O)(=O)[O-])[C@@H]5OS(=O)(=O)[O-])O[C@@H]4C(=O)[O-])O[C@H](COS(=O)(=O)[O-])[C@@H]3OS(=O)(=O)[O-])O[C@@H]2C(=O)[O-])O[C@H](COS(=O)(=O)[O-])[C@H](OS(=O)(=O)[O-])[C@@H]1O[C@@H]1OC(C(=O)[O-])=C[C@H](O[C@@H]2O[C@@H](C)[C@@H](OS(=O)(=O)[O-])[C@@H](O)[C@@H]2OS(=O)(=O)O)[C@H]1O.[Na+].[Na+].[Na+].[Na+].[Na+].[Na+].[Na+].[Na+].[Na+].[Na+].[Na+].[Na+].[Na+].[Na+].[Na+].[Na+].[Na+].[Na+].[Na+].[Na+].[Na+].[Na+]
IC50 [1]: 14 nM
half-life [2]: 33.8 min
inhibition [3]: inactive
MRT last [4]: 91.2 min
IC50 (Coagulation factor IX): 430 nM
Tmax [5]: 45 min
ED50 (Rattus norvegicus [6]; sc, 1.339 h): 2.38 mg/kg
Activity (Rattus norvegicus [6]): Dose-dependent effect
Activity (Plasma): Not Active
Activity (Rattus norvegicus [7]): 60.7%
inhibition [8]: inactive
